For 66 compounds, LC retention time results are on record in the RepoRT retention time repository (doi:10.1007/s00216-015-8540-6).

SMILES strings stand for the structures.

The data set can be described thus: Waters Atlantis T3, 100 × 2.1 mm, 3 µm, 0.1 mL/min, estimated dead time 2.2 min; A: water + 0.01% formic acid; B: methanol + 0.01% formic acid; gradient (min/%B) 0/5 3/5 20/100 29/100. The note with it: stereoisomer not certain.
As for `COC12CCC3(CC1C(C)(O)C(C)(C)C)C1Cc4ccc(O)c5c4C3(CCN1CC1CC1)C2O5` (stereo unspecified), the LC retention time was 16.8 min.

`CCN(CC)C(=O)C1C=C2c3cccc4[nH]cc(c34)CC2N(C)C1` (stereo unspecified): the LC retention time was 15.1 min.

Regarding `CCOP(=O)(Sc1ccccc1)Sc1ccccc1`, the LC retention time is 16.2 min.

For the compound `CCOc1cc(OC)c(OCC)cc1CC(C)N` (stereo unspecified), the LC retention time is 3.15 min.

As to `Cc1ncc([N+](=O)[O-])n1CCO`, the LC retention time was 13.3 min.

Consider `CC(C)NCC(O)COc1ccc(CC(N)=O)cc1` (stereo unspecified), for which the LC retention time was 11.3 min.

Turning to `CC(=O)OC1C=CC2C3Cc4ccc(O)c5c4C2(CCN3C)C1O5` (stereo unspecified), the LC retention time is 12.5 min.

For `CN1CCN2c3ncc(O)cc3Cc3ccccc3C2C1` (stereo unspecified), the LC retention time is 13.6 min.

For the compound `CC(=O)Oc1ccc2c3c1OC1C(OC(C)=O)C=CC4C(C2)N(C)CCC341` (stereo unspecified), the LC retention time was 14.1 min.

With `COc1ccc2c3c1OC1C(=O)CCC4(O)C(C2)N(C)CCC314` (stereo unspecified), the LC retention time is 12.1 min.

On to `CCC(=O)C(CC(C)N(C)C)(c1ccccc1)c1ccccc1` (stereo unspecified), for which the LC retention time is 17.6 min.

Consider `NC(=O)N1c2ccccc2C=Cc2ccccc21`, for which the LC retention time was 20.2 min.

Turning to `Cc1cc2c(s1)Nc1ccccc1N=C2N1CCN(C)CC1`, the LC retention time was 12.6 min.

For the compound `CC12CCC(=O)C=C1CCC1C2C(O)CC2(C)C1CCC2(O)C(=O)CO` (stereo unspecified), the LC retention time was 20.6 min.

Consider `C=CC1(C)CC(OC(=O)CSCCN(CC)CC)C2(C)C(C)CCC3(CCC(=O)C32)C(C)C1O` (stereo unspecified), for which the LC retention time was 17.3 min.

In the case of `CNC(=C[N+](=O)[O-])NCCSCc1ccc(CN(C)C)o1`, the LC retention time is 11.4 min.

For the compound `CC1=C(C(=O)O)N2C(=O)C(NC(=O)C(N)c3ccccc3)C2SC1` (stereo unspecified), the LC retention time was 11.8 min.

With `CCC1OC(=O)C(C)C(OC2CC(C)(OC)C(O)C(C)O2)C(C)C(OC2OC(C)CC(N(C)C)C2O)C(C)(OC)CC(C)C(=O)C(C)C(O)C1(C)O` (stereo unspecified), the LC retention time was 18.7 min.

Regarding `CCC(C)(C)C(=O)OC1CC(C)C=C2C=CC(C)C(CCC3CC(O)CC(=O)O3)C21` (stereo unspecified), the LC retention time is 27.1 min.

`CCn1cc(C(=O)O)c(=O)c2cc3c(cc21)OCO3`: the LC retention time was 18.3 min.

Consider `CC1CC2C(C(O)CC3(C)C2CCC3(O)C(=O)CO)C2(C)C=CC(=O)C=C12` (stereo unspecified), for which the LC retention time was 21.4 min.

Regarding `Cn1c([N+](=O)[O-])cnc1COC(N)=O`, the LC retention time was 13.2 min.

Consider `CNC(C)Cc1ccc2c(c1)OCO2` (stereo unspecified), for which the LC retention time is 13 min.

Take `CCC1OC(=O)C(C)C(OC2CC(C)(OC)C(O)C(C)O2)C(C)C(OC2OC(C)CC(N(C)C)C2O)C(C)(O)CC(C)CN(C)C(C)C(O)C1(C)O` (stereo unspecified): the LC retention time is 18.7 min.

As for `CC(C)NCC(O)COc1cccc2ccccc12` (stereo unspecified), the LC retention time is 16.2 min.

Take `CN(C)C(=N)N=C(N)N`: the LC retention time is 3.04 min.

On to `CCC(C(N)=O)N1CCCC1=O` (stereo unspecified), for which the LC retention time was 13.7 min.

On to `CCCCC(=O)N(Cc1ccc(-c2ccccc2-c2nn[nH]n2)cc1)C(C(=O)O)C(C)C` (stereo unspecified), for which the LC retention time is 24.4 min.

As to `CC1(C)SC2C(NC(=O)C(N)c3ccc(O)cc3)C(=O)N2C1C(=O)O` (stereo unspecified), the LC retention time is 11.2 min.

Take `COCCc1ccc(OCC(O)CNC(C)C)cc1` (stereo unspecified): the LC retention time is 11.2 min.

For the compound `COc1cc(Cc2cnc(N)nc2N)cc(OC)c1OC`, the LC retention time is 12.9 min.

For the compound `Cn1c(=O)c2c(ncn2C)n(C)c1=O`, the LC retention time was 15.2 min.

For `CN=C(NC#N)NCCSCc1nc[nH]c1C`, the LC retention time was 11.5 min.

Consider `CC1(C)OC2COC3(COS(N)(=O)=O)OC(C)(C)OC3C2O1` (stereo unspecified), for which the LC retention time was 18.3 min.

With `CC(=O)Nc1ccc(O)cc1`, the LC retention time is 13.3 min.

For the compound `CC(C(=O)O)c1cccc(C(=O)c2ccccc2)c1` (stereo unspecified), the LC retention time was 21.8 min.

As for `CCC1(c2ccccc2)C(=O)NCNC1=O`, the LC retention time was 17.1 min.

In the case of `CN(C)CCC=C1c2ccccc2COc2ccccc21`, the LC retention time is 16.7 min.

`CN1CCC23c4c5ccc(O)c4OC2C(O)C=CC3C1C5` (stereo unspecified): the LC retention time was 9.52 min.

With `CC1=C(C(=O)O)N2C(=O)C(NC(=O)C(N)c3ccc(O)cc3)C2SC1` (stereo unspecified), the LC retention time is 11.8 min.

On to `CCNC(C)Cc1ccc2c(c1)OCO2` (stereo unspecified), for which the LC retention time is 13.4 min.

Regarding `COC(=O)C1C(OC(=O)c2ccccc2)CC2CCC1N2C` (stereo unspecified), the LC retention time is 14.3 min.

As for `COc1ccc2c3c1OC1C(O)C=CC4C(C2)N(C)CCC341` (stereo unspecified), the LC retention time is 11.8 min.

In the case of `CCCCCc1cc(O)c2c(c1C(=O)O)OC(C)(C)C1CCC(C)=CC21` (stereo unspecified), the LC retention time was 26.9 min.

`CN(C)CCC=C1c2ccccc2CCc2ccccc21`: the LC retention time was 17.9 min.

In the case of `CC(N)Cc1ccc2c(c1)OCO2` (stereo unspecified), the LC retention time was 12.9 min.

On to `Cc1nnc(SCC2=C(C(=O)O)N3C(=O)C(NC(=O)Cn4cnnn4)C3SC2)s1` (stereo unspecified), for which the LC retention time was 17.6 min.

For `Cc1noc(NS(=O)(=O)c2ccc(N)cc2)c1C`, the LC retention time was 14.6 min.

Regarding `CN(C)C1C(=O)C(C(N)=O)=C(O)C2(O)C(=O)C3=C(O)c4c(O)cccc4C(C)(O)C3CC12` (stereo unspecified), the LC retention time is 14.5 min.

Take `CCC1OC(=O)CC(O)C(C)C(OC2OC(C)C(OC3CC(C)(O)C(O)C(C)O3)C(N(C)C)C2O)C(CC=O)CC(C)C(=O)C=CC(C)=CC1COC1OC(C)C(O)C(OC)C1OC` (stereo unspecified): the LC retention time was 17.6 min.

With `CC(N)C(O)c1ccccc1` (stereo unspecified), the LC retention time was 10.9 min.

Turning to `CN(C)CCCN1c2ccccc2CCc2ccccc21`, the LC retention time was 17.6 min.

`CN1C2CCC1C(C(=O)O)C(OC(=O)c1ccccc1)C2` (stereo unspecified): the LC retention time is 15.7 min.

Take `CNC(C)C(O)c1ccccc1` (stereo unspecified): the LC retention time is 11.7 min.

With `COc1ccc(C(CN(C)C)C2(O)CCCCC2)cc1` (stereo unspecified), the LC retention time is 15.7 min.

As to `CN(C)C1C(=O)C(C(N)=O)=C(O)C2(O)C(=O)C3=C(O)c4c(O)cccc4C(C)(O)C3C(O)C12` (stereo unspecified), the LC retention time was 14.8 min.

In the case of `CC(=O)C1CCC2C3CCC4=CC(=O)CCC4(C)C3CCC12C` (stereo unspecified), the LC retention time was 24.8 min.

`CN1CCN2c3ncccc3Cc3ccccc3C2C1` (stereo unspecified): the LC retention time was 14.6 min.

Consider `CNC(C)Cc1ccccc1` (stereo unspecified), for which the LC retention time is 12.8 min.

For the compound `COc1cccc(C2(O)CCCCC2CN(C)C)c1` (stereo unspecified), the LC retention time is 14.2 min.

For `CCN(CC)CC(=O)Nc1c(C)cccc1C`, the LC retention time was 13.4 min.

Turning to `CC(N)Cc1ccccc1` (stereo unspecified), the LC retention time is 12.6 min.

Consider `CNCCC=C1c2ccccc2CCc2ccccc21`, for which the LC retention time was 18 min.

With `O=C1CN=C(c2ccccc2)c2cc([N+](=O)[O-])ccc2N1`, the LC retention time is 20.4 min.

`CC12CCC(=O)C=C1CCC1C2C(=O)CC2(C)C1CCC2(O)C(=O)CO` (stereo unspecified): the LC retention time was 20 min.

For `COc1ccc2nc(S(=O)Cc3ncc(C)c(OC)c3C)[nH]c2c1` (stereo unspecified), the LC retention time is 18.7 min.
